# Laboratory results taken from patent publication US8658777B2, “Activated protease indicator” (The University of Tokyo, priority 2007, dated 2014).
# *1 amine or outer side, *2 acyl side, *3 side chain or, on linkers, in order; H or OH if unused. Where a SMILES comes first, the peptide text is derived from it. Bridges are numbered along the chain shown (N, C = ends). Roman numbers before positions name the chains, in order. [ ]: non-standard residue; d: D form. The star is where a group is joined. Actinocin(9to1) = Cc1c2oc3c(C)ccc(C(=O)[*:1])c3nc-2c(C(=O)[*:2])c(N)c1=O; NMeV = CN[C@H](C(=O)O)C(C)C; Cbz = O=C(OCc1ccccc1)*; Sar = CNCC(=O)O; CH2F = FC*
# Legend:
# caspase-3 [1] = experiment: Real-time in vitro analysis of caspase-3 activity in HeLa cells expressing cyclic Fluc; assay type: cell-based
# Description: [FIG. 9] Real-time in vitro analysis of caspase-3 activity. Forty eight hours after HeLa cells transfected with pcFluc-DEVD were treated with different concentrations of STS and then the bioluminescence intensities were measured every 5 minutes. The indicated time represents the time after the addition of each agent.
# [FIG. 10] Results of the measurement with actinomycin D (ActD) in the same manner as in FIG. 9. Real-time in vitro analysis of capsase-3 activity. Forty eight hours after HeLa cells transfected with pcFluc-DEVD were treated with different concentrations of actinomycin D (ActD) and then the bioluminescence intensities were measured every 5 minutes. The indicated time represents the time after the addition of each agent.
# pcFluc-DEVD was transfected in the HeLa cells in a 10-cm Petri dish for 24 hours. The cells were scraped off and divided in five 3-cm Petri dishes, for culturing for 24 hours. The culture medium was replaced with the Hank's balanced salt solution (Gibco) containing 500 μM D-luciferin and 5% FBS. After the five 3-cm Petri dishes were mounted on a photon counter (KRONOS, ATTO, Tokyo, Japan), the cells were stimulated with STS or actinomycin D (Act D, Sigma). The luminescence intensity in each of the Petri dishes was assayed for a cumulative time period of 45 seconds at an interval of 5 minutes.
# It is known that the time required for caspase-3 activation in response to extracellular stimuli varies with the type of chemical compounds and its concentration. In order to decide upon a screening time, it is crucial to know when the activity of caspase-3 gives a maximum response after stimulation with such apoptotic chemical regents. […] First, the cyclic Fluc indicator was transiently expressed in HeLa cells; the luminescence intensity upon stimulation with STS at various concentrations was monitored every five minutes in a time course (FIG. 9). […] The rate of increase in the luminescence intensity depended on the STS concentration. […] The decrease in the luminescence signal intensity indicates attenuation of active luciferase by proteolysis in the HeLa cells.
# caspase-3 [2] = experiment: Fluc activity in caspase-3-deficient MCF-7 cells transfected with pcFluc-DEVD with or without pCaspase-3; assay type: cell-based
# Description: Analysis of the Flue activity in the caspase-3-deficient MCF-7 cells. MCF-7 cells were transfected with only pcFluc-DEVD (left) or with both pcFluc-DEVD and pCaspase-3 (right). The cells were incubated for 48 hours and the luminescence intensities were evaluated at the indicated times after stimulation with 100 nM STS. A relative luminescence unit (RLU) was defined as follows: the luminescence intensity from the right side (LumR) was divided by that from the left side (LumL), as RLU (%)=LumR/LumL.
# caspase-3 [3] = experiment: In vitro assay of firefly luciferase in COS-7 cells transfected with pcFluc-DEVD; assay type: cell-based
# Description: [FIG. 5] Quantitative analysis of the Fluc activity with STS and Z-VAD-FMK. After transfection of COS-7 cells with pcFluc-DEVD for 48 hours, the cells were treated with 100 μM Z-VAD-FMK or vehicle (0.1% DMSO) for an hour and then stimulated with various concentrations of STS for two hours. A relative luminescence unit (RLU) was defined as follows: the luminescence intensity from the right side (LumR) was divided by that from the left side (LumL), as RLU (%)=LumR/LumL.
# (§1) pcFluc-DEVD and pRL-TK were transfected in the COS-7 cells and the HeLa cells for 48 hours. These cells were treated with STS or a caspase inhibitor Z-VAD-FMK (Sigma) to assay the luciferase activity according to the report (Ozawa, T. et al. (2001) Anal. Chem. 73, 2516-21; Kanno, A. et al. (2006) Anal. Chem. 78, 556-60). The assay time period of Fluc and Renilla reniformis luciferase (Rluc) was 20 seconds. The luminescence from Fluc (LF) was normalized to the luminescence from Rluc (LR), and the resulting value was defined as relative luminescence unit (RLU; RLU=LF/LR). All the assays were done in various wells in a culture plate triplicately, using a luminometer of MiniLuraat LB9506 (Berthold GmbH & Co. KG, Wildbad, Germany). The results are shown as the mean ratio of the RLU value to the RLU value of cells treated with a solvent (0.1% DMSO), together with the standard deviations.
# In the Example, continuously, it was examined whether the activity of the cyclic Fluc was restored after stimulation with STS. COS-7 cells transfected with pcFluc-DEVD were stimulated with STS or a caspase inhibitor Z-VAD-FMK, or with both STS and Z-VAD-FMK. The cells were harvested and their lysates were mixed with a Fluc substrate, D-luciferin. […] The luminescence signals in the presence of Z-VAD-FMK were smaller than the signals that originated from the cells in the absence of STS and Z-VAD-FMK.
# caspase-3 [4] = experiment: In vitro assay of firefly luciferase in HeLa cells transfected with pcFluc-DEVD; assay type: cell-based
# Description: [FIG. 7] Quantitative analysis of the Flue activity with STS. After transfection of HeLa cells with pcFluc-DEVD for 48 hours, the cells were treated with various concentrations of STS for two hours. A relative luminescence unit (RLU) was defined as follows: the luminescence intensity from the right side (LumR) was divided by that from the left side (LumL), as RLU (%)=LumR/LumL.
# [FIG. 8] Quantitative analysis of the Flue activity with Z-VAD-FMK. The HeLa cells were transfected with pcFluc-DEVD for 48 hours, treated with different concentrations of Z-VAD-FMK or vehicle (0.1% DMSO), and stimulated with various concentrations of STS for two hours. A relative luminescence unit (RLU) was defined as follows: the luminescence intensity from the right side (LumR) was divided by that from the left side (LumL), as RLU (%)=LumR/LumL.
# as §1
# To show the feasibility of cyclic Fluc for characterizing apoptotic regents, the sensitivity of cyclic Fluc was examined, using HeLa cells. The cells were transfected with pcFluc-DEVD, for transient expression of chimera proteins, which were stimulated with different concentrations of STS for two hours. […]
# caspase-3 [5] = experiment: In vivo imaging of caspase-3 activity in living mice implanted with HeLa cells expressing cyclic Fluc; parameters: species or system BALB/c-nude mouse
# Description: [FIG. 11] In vivo luminescence assay of mice carrying transiently transfected HeLa cells. The mice were subcutaneously implanted with HeLa cells expressing cyclic Fluc (right side) and full-length Fluc (left side). Images of the mice were taken at the indicated times after intraperitoneal injection of STS. A representative of three mice is shown.
# [FIG. 12] Time-dependent changes in the photon count from the implanted site in FIG. 11. The relative luminescence unit (RLU) is shown on the longitudinal axis, where RLU=LumR/LumL provided that luminescence intensity from the right side (LumR) is divided with the luminescence intensity from the left side (LumL), as shown in (A). A relative luminescence unit (RLU) was defined as follows: the luminescence intensity from the right side (LumR) was divided by that from the left side (LumL), as RLU (%)=LumR/LumL.
# pX8luc or pcFluc-DEVD was transfected in HeLa cells for 48 hours. The cells were harvested and suspended in a phosphate buffered saline (PBS), from which 1.0×10^6 cells were transplanted in two different dorsal positions of a BALB/c-nude mouse (female, five-week-old, body weight of about 17 to 20 g). After the cell transplantation, STS dissolved in DMSO was intraperitoneally injected. Immediately thereafter, a PBS buffer containing D-luciferin (600 mg/kg body weight) was intraperitoneally injected, to assay the luminescence from the mouse, using a CCD camera (IVIS200 system, Xenogen, Alameda, Calif.). Photons emitted from the transplanted cells were counted and cumulatively recorded over one minute. Image analysis was done, using the software LIVING IMAGE (Xenogen). So as to quantitatively determine the assayed luminescence, a region of interest was extracted from the cell-transplanted regions, to evaluate the luminescence intensity (photon·second^−1·cm^−2). […]
# To quantitatively evaluate the effect of STS on caspase-3 activity, a relative luminescence unit (RLU) was defined as follows; the luminescence intensity from the right side (LumR) was divided by that from the left side (LumL), as RLU (%)=LumR/LumL. […]
# caspase-3 [6] = experiment: Western blot analysis of cyclic and linear Fluc in COS-7 cells transfected with pcFluc-DEVD; assay type: cell-based; details: indicated concentrations of STS for two hours, Western blot (FIG. 4)
# Description: Western blot analysis of Fluc in the circular form and in the linear form. COS-7 cells transfected with pcFluc-DEVD for 48 hours were treated with the indicated concentrations of STS for two hours and harvested. The sample was electrophoresed, transferred on a nitrocellulose membrane and stained with a specific antibody.
# pcFluc-DEVD was transfected in the COS-7 cells for 48 hours. The cells were stimulated with staurosporine (STS; Sigma, St. Louise, Mo.) and then disrupted in a lysis buffer (1% SDS, 10% glycerol, 10% 2-mercaptoethanol, 0.001% Bromophenol Blue, 50 mM Tris/HCl, pH 6.8). The sample was electrophoresed with 10% SDS polyacrylamide gel, which was then transferred on a nitrocellulose membrane (Hybond-ECL, GE Healthcare, Buckinghamshire, England). Fluc was detected with a polyclonal anti-luciferase antibody (Promega); the immunoreactivity was evaluated, using horseradish peroxidase (HRP) conjugated to an anti-goat IgG antibody (Promega). The HRP activity was visualized, using an ECL advance Western blotting detection kit (GE Healthcare) with LAS-1000 plus image analyzer (Fuji Film Co., Tokyo, Japan).
# To assess whether the fusion protein expressed by pcFluc-DEVD produces cyclic Fluc by protein splicing, herein, pcFluc-DEVD was transfected in COS-7 cells and chimera proteins were transiently expressed for 48 hours. The spliced products were examined by Western blot (FIG. 3). […]
# [7] = STS 100 μg/kg of body weight i.p.
smiles,measurement,setting,value
"Cc1c2oc3c(C)ccc(C(=O)N[C@@H]4C(=O)N[C@H](C(C)C)C(=O)N5CCC[C@H]5C(=O)N(C)CC(=O)N(C)[C@@H](C(C)C)C(=O)O[C@@H]4C)c3nc-2c(C(=O)N[C@@H]2C(=O)N[C@H](C(C)C)C(=O)N3CCC[C@H]3C(=O)N(C)CC(=O)N(C)[C@@H](C(C)C)C(=O)O[C@@H]2C)c(N)c1=O [ActD, actinomycin D] (I: T[dV]P[Sar][NMeV] / II: T[dV]P[Sar][NMeV]; ester I:1-I:C, II:1-II:C; linker I:N-II:N via Actinocin(9to1))",time period over which the luminescence signal intensity increased,"caspase-3 [1]; ActD, then gradually decreased (FIG. 10)",25 to 120 min
"CN[C@@H]1C[C@H]2O[C@@](C)([C@@H]1OC)n1c3ccccc3c3c4c(c5c6ccccc6n2c5c31)C(=O)NC4 [STS, staurosporine]",luminescence from the cells,"caspase-3 [2]; MCF-7 cells cotransfected with pcFluc-DEVD and pCaspase-3, stimulation with STS",significantly increased
same,change in the bioluminescence intensity,"caspase-3 [2]; MCF-7 cells transfected with pcFluc-DEVD only, 1 μM STS for two hours",little change
same,luminescence signals,"caspase-3 [3]; COS-7 cells, various concentrations of STS for two hours (FIG. 5)",increased with increase in concentrations of the STS
same,concentration range inducing an increase in the bioluminescence intensity,"caspase-3 [4]; HeLa cells, STS for two hours (FIG. 7)",10 to 1000 nM
same,time at which luminescence signals reach a maximum after stimulation,caspase-3 [1]; STS at various concentrations (FIG. 9),100 min
same,duration of initial slow increase in the luminescence signals,"caspase-3 [1]; STS at various concentrations, measured every five minutes (FIG. 9)",25 min
same,"luminescence signal from the left side (HeLa cells expressing full-length Fluc, control)",caspase-3 [5]; [7],no significant change
same,luminescence signal intensity from the right side (implanted cyclic Fluc cells),caspase-3 [5]; [7],significant increase
same,maximum RLU ratio in comparison to the RLU before STS stimulation,"caspase-3 [5]; two hours after the intraperitoneal STS injection, RLU=LumR/LumL (FIG. 12)",300 to 400%
same,Formation of the linear form of Fluc,caspase-3 [6],dependent on the concentration of STS
COC(=O)C[C@H](NC(=O)[C@H](C)NC(=O)[C@@H](NC(=O)OCc1ccccc1)C(C)C)C(=O)CF [Z-VAD-FMK] (Cbz-Val-Ala-Asp(OMe)-CH2F),luminescence signal relative to signals from vehicle-treated cells,caspase-3 [3]; COS-7 cells treated with 100 μM Z-VAD-FMK (FIG. 5),50%
same,luminescence,"caspase-3 [3]; COS-7 cells, 100 μM Z-VAD-FMK, in the presence or absence of 1 μM STS",no increase in luminescence
same,basal caspase-3 activities,"caspase-3 [3]; COS-7 cells, 100 μM Z-VAD-FMK, no STS",completely inhibited
same,concentrations at which inhibitory effect on the cleavage of the cyclic Fluc was observed,caspase-3 [4]; HeLa cells stimulated with STS for two hours (FIG. 8),higher than 10 μM
same,cleavage of the cyclic Fluc,"caspase-3 [4]; HeLa cells, 100 μM Z-VAD-FMK, STS stimulation",completely suppressed
